Assay results reported in US12503448B2, “Antibacterial and antiparasitic quinoxaline-2,3-diamine derivatives” (University College Cardiff Consultants Limited, priority 2019, dated 2025).

Assay: MTT assay on HepG2 cells
Assay type: cell-based
Settings: human
Method: MTT Assay on HepG2 Cells Human Hepatocyte Carcinoma (HepG2) cells (85011430, Sigma Aldrich) were used to assess the overt toxicity of these anti-infective compounds. […] A negative control (1% v/v Triton X-100; X100, Sigma-Aldrich) was also included in each screen. After addition of compounds, each plate was then incubated for a further 20 hrs before application of MTT reagent (prepared as described in Nur-[…], Bari A, Ghabbour […], Hoffmann […] Nat Prod. 2017 Jun. 23; 80(6):1900-1908 for the assessment of compound cytotoxicity using the MTT assay. […] The plate was then further incubated for 4 hrs. After incubation, each plate was blotted dry under the laminar flow to remove the MTT treated culture media. A 100 μl DMSO: isopropanol (1:1) solution was then added to each well and the plate was then subsequently incubated for 10 minutes at 37° C. Following incubation, each plate was shaken again and then absorbance measured at 570 nm. The absorbance reading was corrected based on the average value of the wells used as blank (no cells). […] The data obtained in this manner is shown in Table 1 in the columns labelled “HepG2”. […] The selectivity indexes for schistosomula and adult worms are shown in the final two columns in Table 1.

## O=[N+]([O-])c1ccc2nc(Nc3ccc(C(F)(F)F)cc3)c(Nc3ccc(C(F)(F)F)cc3)nc2c1 [Compound 11, 6-nitro-N^2, N^3-bis(4-(trifluoromethyl)phenyl)quinoxaline-2,3-diamine]
  CC50 at 24 h: 15.6 µM
